Experimental data: patent EP1900728A1 (Genecare Research Institute Co., Ltd, priority 2005, dated 2006)

Each compound was assayed against T1, IκBα ubiquitinating enzyme (SCF complex: ROC1, Cullin1, Skp1, His-TrCP1; with E1, UbcH5b) (Homo sapiens, UniProt P62877+P63208+Q13616+Q9Y297) (assay: Measurement of ubiquitinating enzyme activity (IκBα ubiquitination, time-resolved fluorescence with Eu(K)-labeled ubiquitin and XL665-labeled anti-GST antibody)). Settings: enzyme activity inhibition test, method (1), Table 5; read-out: EVALUATION.
T1 construct: His (polyhistidine); made in house; host or cells: insect cells (baculovirus) for the SCF complex and His-E1; E. coli for His-UBCH5b
T1 sequence (Q9Y297 whole entry): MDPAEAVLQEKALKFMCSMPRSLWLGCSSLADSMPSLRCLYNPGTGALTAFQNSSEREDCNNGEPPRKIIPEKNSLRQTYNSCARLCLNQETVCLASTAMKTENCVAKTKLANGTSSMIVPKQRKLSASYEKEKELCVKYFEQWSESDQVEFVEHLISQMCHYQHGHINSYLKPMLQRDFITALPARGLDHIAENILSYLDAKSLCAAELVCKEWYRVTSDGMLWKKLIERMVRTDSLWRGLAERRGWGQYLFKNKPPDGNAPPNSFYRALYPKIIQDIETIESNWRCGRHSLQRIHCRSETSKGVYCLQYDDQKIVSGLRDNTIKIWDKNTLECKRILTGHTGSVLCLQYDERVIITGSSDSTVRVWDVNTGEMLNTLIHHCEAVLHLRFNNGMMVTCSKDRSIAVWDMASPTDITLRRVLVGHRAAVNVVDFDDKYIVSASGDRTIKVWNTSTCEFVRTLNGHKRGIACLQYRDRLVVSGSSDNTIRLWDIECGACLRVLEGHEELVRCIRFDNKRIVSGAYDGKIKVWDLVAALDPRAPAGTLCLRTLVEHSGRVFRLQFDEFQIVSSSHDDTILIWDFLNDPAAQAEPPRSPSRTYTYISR
T1 sequence (Q13616 whole entry): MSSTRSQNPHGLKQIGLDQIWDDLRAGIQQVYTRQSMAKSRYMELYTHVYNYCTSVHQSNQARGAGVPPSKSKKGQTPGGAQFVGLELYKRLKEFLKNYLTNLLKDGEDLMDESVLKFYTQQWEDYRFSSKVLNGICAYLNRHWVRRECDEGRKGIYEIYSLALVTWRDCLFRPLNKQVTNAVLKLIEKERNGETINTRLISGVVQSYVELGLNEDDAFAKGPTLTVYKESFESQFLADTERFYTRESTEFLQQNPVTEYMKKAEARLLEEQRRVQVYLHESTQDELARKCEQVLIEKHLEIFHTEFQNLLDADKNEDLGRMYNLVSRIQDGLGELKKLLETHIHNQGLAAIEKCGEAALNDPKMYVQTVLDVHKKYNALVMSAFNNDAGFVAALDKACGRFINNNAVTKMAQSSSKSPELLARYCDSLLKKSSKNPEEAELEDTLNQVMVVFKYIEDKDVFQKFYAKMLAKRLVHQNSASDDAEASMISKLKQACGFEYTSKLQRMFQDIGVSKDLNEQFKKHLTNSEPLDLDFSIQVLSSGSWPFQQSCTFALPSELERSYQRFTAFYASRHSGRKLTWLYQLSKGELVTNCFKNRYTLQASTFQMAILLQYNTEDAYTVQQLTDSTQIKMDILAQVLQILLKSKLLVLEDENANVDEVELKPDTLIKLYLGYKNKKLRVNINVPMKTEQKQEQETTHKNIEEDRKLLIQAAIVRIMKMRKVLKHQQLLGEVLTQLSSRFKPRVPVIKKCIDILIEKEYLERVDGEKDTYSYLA
T1 sequence (P63208 whole entry): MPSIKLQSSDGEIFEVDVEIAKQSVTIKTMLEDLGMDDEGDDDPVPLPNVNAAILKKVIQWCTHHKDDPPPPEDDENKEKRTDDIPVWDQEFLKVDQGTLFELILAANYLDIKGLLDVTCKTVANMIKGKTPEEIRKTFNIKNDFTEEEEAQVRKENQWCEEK
T1 sequence (P62877 whole entry): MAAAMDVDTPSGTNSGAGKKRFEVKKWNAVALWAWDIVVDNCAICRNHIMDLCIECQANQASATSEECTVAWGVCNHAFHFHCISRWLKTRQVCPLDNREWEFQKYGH
Type: biochemical
Experimental: Method 1: Measurement of ubiquitinating enzyme activity
A recombinant vector His-UBCH5b containing a polyhistidine tag (His) and UBCH5b was prepared. E. coli was transformed with the vector, the protein was expressed, and affinity purification was carried out using Ni-NTA agarose (Qiagen). Four types of recombinant baculoviruses (ROC1, Cullin1, Skp1, and His-TrCP1) were prepared for the SCF complex protein, insect cells were infected in quadruplicate for expression, and affinity purification was carried out using Ni-NTA agarose. Recombinant baculoviruses His-IKKβ, His-E1 were prepared. The insect cells were infected with each of those for expression, and affinity purification was carried out using Ni-NTA agarose. A recombinant vector GST-IκBα was prepared by fusing glutathione-S-transferase tag (GST) and IκBα, E. coli was transformed with the vector for the protein expression, and affinity purification was carried out using glutathione sepharose (Amersham Biosciences). Genetic transformants were prepared by PCR amplification followed by recombination, all of which were based on published human-derived sequences.
Phosphorylation reaction of IκBα was performed by incubating the above-mentioned assay buffer (50 mM Tris-HCl (pH7.4), 2 mM ATP, 5 mM MgCl2, 0.5 mM DTT, 0.1% BSA) containing IκBα and IKKβ at room temperature for 1 hour. Ubiquitination reactions were carried out as follows. Compound samples at various concentrations, ubiquitin, Eu (K)-labeled ubiquitin, E1, UbcH5b, and SCF complex were added to phosphorylated IκBα, and then this was incubated at room temperature for 30 minutes. The reaction was terminated by adding EDTA, the above-mentioned revelation buffer (100 mM phosphate buffer (pH7.0), 0.5 M KF, 0.1% BSA) containing XL665-labeled anti-GST antibody was added and this was left to stand at room temperature for 2 hours. Measurements were made using ARVO-HTS (Perkin Elmer). The ratio of fluorescence intensities at 620 nm and 665 nm (Em 665 nm/Em 620 nm x 10,000) with excitation light at 337 nm was measured.
The ubiquitination level without the addition of a compound sample was used as the control value, and the level in the absence of SCF complex was used as the blank value for the assays. Inhibitory activities of the compounds were indicated as % inhibition = 100 - (value with a compound sample added - blank value) / (control value - blank value) x 100. IC50 was indicated as the concentration of the compound showing 50% inhibition. Eu (K)-labeled ubiquitin, XL665-labeled anti-GST antibody, and XL665-labeled anti-His antibody were purchased from CIS bio international. Costar solid black plates (96 wells) were used for the assays.

Row | Compound | IC50 [µM]
1 | CCOC(=O)c1ccc(COc2ccc(/C=C3\C(=O)N(c4cccc(S(N)(=O)=O)c4)N=C3C)cc2OC)o1 [Compound 155] | < 40
2 | CC1=NN(c2ccc(S(N)(=O)=O)cc2)C(=O)/C1=C\c1ccccc1O [Compound 219] | < 40
3 | COCC1=NN(c2ccc(C(=O)O)cc2)C(=O)/C1=C\c1ccc(N2CCN(C)CC2)cc1 [Compound 241] | < 40
4 | CC1=NN(c2cccc(S(N)(=O)=O)c2)C(=O)/C1=C\c1ccc(-n2cccn2)cc1 [Compound 145] | 10 to 20
5 | O=C(O)c1ccc(N2N=C(c3ccoc3)/C(=C/c3ccc4c(c3)OCO4)C2=O)cc1 [Compound 476] | < 10
6 | COc1ncccc1/C=C1\C(=O)N(c2cccc(C(=O)O)c2)N=C1C [Compound 506] | < 40
7 | CC1=NN(c2cccc(C(=O)O)c2)C(=O)/C1=C\c1c[nH]c2ccc(Cl)cc12 [Compound 377] | < 10
8 | COCCC1=NN(c2cccc(C(=O)O)c2)C(=O)/C1=C\c1ccc(-c2ccccc2F)o1 [Compound 526] | < 40
9 | CN1CCN(c2ccc(/C=C3\C(=O)N(c4ccccc4)N=C3Cc3ccccc3)cc2)CC1 [Compound 100] | < 40
10 | CC1=NN(c2cccc(C(=O)O)c2)C(=O)/C1=C\c1ccc(-n2cccn2)cc1 [Compound 379] | < 10
11 | O=C(O)c1ccc(N2N=C(c3ccoc3)C(=Cc3ccc(N4CCC(O)CC4)s3)C2=O)cc1 [Compound 251] | < 40
12 | CC1=NN(c2ccc(S(N)(=O)=O)cc2)C(=O)C1=Cc1ccc(N2CCCC2CO)cc1 (stereo not drawn) [Compound 172] | < 40
13 | COc1ccc(C2=NN(c3ccc(C(=O)O)cc3)C(=O)C2=Cc2ccc(-n3cncn3)cc2)cc1OC [Compound 343] | < 40
14 | O=C(O)c1ccc(N2N=C(c3ccncc3)/C(=C/c3ccc(-c4ccccc4F)o3)C2=O)cc1 [Compound 341] | 10 to 20
15 | CCCCC1=NN(c2ccc(C(=O)O)cc2)C(=O)/C1=C\c1ccc2ccccc2c1 [Compound 336] | 10 to 20
16 | CC1=NN(c2cccc(C(=O)N(C)CCO)c2)C(=O)/C1=C\c1ccc2c(c1)OCCO2 [Compound 414] | 10 to 20
17 | CC1=NN(c2cccc(C(=O)O)c2)C(=O)/C1=C\c1ccc2cc[nH]c2c1 [Compound 381] | < 10
18 | COc1cc(C=C2C(=O)N(c3ccc(C(C)(C)C)cc3)N=C2C)ccc1O [Compound 196] | < 10
19 | CC1=NN(c2cccc(S(N)(=O)=O)c2)C(=O)/C1=C\c1ccc(N2CCN(c3ccccc3)CC2)cc1 [Compound 170] | < 10

Row | Compound | IC50 [µM]
20 | CC1=NN(c2ccc(C(=O)O)cc2)C(=O)/C1=C\c1ccc2cc[nH]c2c1 [Compound 380] | < 10
21 | CC1=NN(c2ccc(C(=O)N3CCN(c4ccccc4)CC3)cc2)C(=O)C1=Cc1ccc2[nH]ccc2c1 [Compound 353] | < 10
22 | CC(C)(C)OC(=O)N1CCN(C(=O)C2=NN(c3ccccc3)C(=O)/C2=C\c2ccc(-c3ccccc3F)o2)CC1 [Compound 88] | < 40
23 | CC1=NN(c2ccc(S(N)(=O)=O)cc2)C(=O)C1=Cc1c[nH]c2ccc(Cl)cc12 [Compound 146] | < 10
24 | NS(=O)(=O)c1ccc(N2N=C(C3CC3)/C(=C/c3ccc(-n4cncn4)cc3)C2=O)cc1 [Compound 111] | < 40
25 | CC1=NN(c2ccc(S(N)(=O)=O)cc2)C(=O)/C1=C\c1ccc(OCC(=O)N(C)C)cc1 [Compound 209] | 10 to 20
26 | CC1=NN(c2cccc(C(=O)O)c2)C(=O)/C1=C\c1ccc2c(ccn2C)c1 [Compound 493] | < 10
27 | CC1=NN(c2cccc(S(N)(=O)=O)c2)C(=O)/C1=C\c1ccc2occc2c1 [Compound 143] | < 40
28 | CC1=NN(c2cccc(C(=O)N3CCC(C(=O)O)CC3)c2)C(=O)/C1=C\c1ccc2[nH]ccc2c1 [Compound 374] | < 10
29 | COCC1=NN(c2ccccc2)C(=O)/C1=C\c1ccc(CO)o1 [Compound 7] | < 40
30 | O=C1/C(=C\c2ccc(CO)o2)C(c2ccncc2)=NN1c1ccccc1 [Compound 44] | < 40
31 | CC1=NN(c2cccc(C(=O)O)c2)C(=O)/C1=C\c1ccc(N2CCNCC2)cc1 [Compound 452] | < 10
32 | COc1cc(/C=C2\C(=O)N(c3cccc(S(N)(=O)=O)c3)N=C2C)ccc1OCC1CC1 [Compound 160] | < 40
33 | COc1cc(/C=C2\C(=O)N(c3ccc(S(N)(=O)=O)cc3)N=C2C)ccc1OCC1CC1 [Compound 159] | 10 to 20
34 | COC(=O)N1CCN(c2ccc(/C=C3\C(=O)N(c4ccccc4)N=C3c3cccnc3)cc2)CC1 [Compound 62] | < 40
35 | COc1cc(/C=C2\C(=O)N(c3ccc(S(N)(=O)=O)cc3)N=C2C)ccc1OCn1nnc2ccccc21 [Compound 156] | 10 to 20
36 | O=C1/C(=C\c2ccc(-n3cncn3)cc2)C(Cc2ccccc2)=NN1c1ccccc1 [Compound 31] | < 40
37 | COC(=O)N1CCN(c2ccc(/C=C3\C(=O)N(c4ccccc4)N=C3c3ccncc3)cc2)CC1 [Compound 42] | < 40
38 | CCOC(=O)CN1N=C(C)/C(=C/c2ccc(O)c(OC)c2)C1=O [Compound 130] | 10 to 20

The next lines start with the values.

Row | IC50 [µM] | Compound
39 | < 10 | CC1=NN(c2ccc(C(=O)N3CCCC3CO)cc2)C(=O)/C1=C\c1ccc2[nH]ccc2c1 (stereo not drawn) [Compound 362]
40 | < 40 | CC1=NN(c2ccc(C(=O)O)cc2)C(=O)/C1=C\c1cccs1 [Compound 517]
41 | < 40 | CC1=NN(c2ccc(C(=O)O)cc2)C(=O)/C1=C\c1c(C)nn(C)c1Cl [Compound 514]
42 | < 40 | CC1=NN(c2ccc(C(=O)O)cc2)C(=O)/C1=C\c1nccs1 [Compound 257]
43 | < 40 | CC1=NN(c2ccc(C(=O)NCC(C)O)cc2)C(=O)C1=Cc1ccc2c(c1)OCCO2 (stereo not drawn) [Compound 398]
44 | 10 to 20 | CC1=NN(c2ccc(C(=O)O)cc2)C(=O)/C1=C\c1ccc(S(=O)(=O)O)o1 [Compound 525]
45 | < 10 | COCC1=NN(c2ccc(C(=O)O)cc2)C(=O)/C1=C\c1cccc2nccnc12 [Compound 327]
46 | < 40 | CC1=NN(c2cccc(S(N)(=O)=O)c2)C(=O)/C1=C\c1ccc(N2CCC(O)C2)cc1 (stereo not drawn) [Compound 178]
47 | 10 to 20 | O=C(O)c1ccc(N2N=C(c3cccnc3)/C(=C/c3ccc4c(c3)OCCO4)C2=O)cc1 [Compound 310]
48 | 10 to 20 | CC1=NN(c2ccc(S(N)(=O)=O)cc2)C(=O)/C1=C\c1ccc(OS(=O)(=O)c2ccc(C(C)(C)C)cc2)cc1 [Compound 221]
49 | 10 to 20 | CC1=NN(c2ccccc2)C(=O)/C1=C\c1ccc(N2CCN(C)CC2)cc1 [Compound 99]
50 | < 10 | CC1=NN(c2cccc(C(=O)N3CCCCC3)c2)C(=O)/C1=C\c1ccc2[nH]ccc2c1 [Compound 369]
51 | < 10 | CC1=NN(c2ccc(S(N)(=O)=O)cc2)C(=O)/C1=C\c1ccc(N2CCN(c3ccc(F)cc3)CC2)cc1 [Compound 176]
52 | 10 to 20 | CC1=NN(c2cccc(S(N)(=O)=O)c2)C(=O)C1=Cc1cccc2[nH]ccc12 [Compound 137]
53 | < 10 | CC1=NN(c2cccc(C(=O)O)c2)C(=O)C1=Cc1cc2ccccc2n1C [Compound 359]
54 | < 40 | CC1=NN(c2cccc(C(=O)O)c2)C(=O)/C1=C\c1ccsc1 [Compound 515]
55 | 10 to 20 | O=C1/C(=C\c2ccc(CO)o2)C(C2CC2)=NN1c1ccccc1 [Compound 75]
56 | < 10 | CC1=NN(c2cccc(S(N)(=O)=O)c2)C(=O)/C1=C\c1c[nH]c2ccc(Cl)cc12 [Compound 147]
57 | 10 to 20 | COCC1=NN(c2ccccc2)C(=O)/C1=C\c1ccc2c(c1)OCCO2 [Compound 9]
58 | < 10 | CC1=NN(c2ccc(C(=O)O)cc2)C(=O)/C1=C\c1cc2ccccc2n1C [Compound 360]
59 | 10 to 20 | CN1CCN(c2ccc(/C=C3\C(=O)N(c4ccccc4)N=C3C3CC3)cc2)CC1 [Compound 78]
60 | < 40 | O=C1/C(=C\c2ccc(N3CCCC3)cc2)C(c2ccncc2)=NN1c1ccccc1 [Compound 45]
61 | 10 to 20 | COc1cc(/C=C2\C(=O)N(c3cccc(C(=O)O)c3)N=C2C)ccc1OCC1CC1 [Compound 393]
62 | < 10 | CC1=NN(c2ccc(C(=O)N3CCCCC3)cc2)C(=O)/C1=C\c1ccc2[nH]ccc2c1 [Compound 358]

Same assay, conditions: read-out: EVALUATION; enzyme activity inhibition test, method (1), Table 5

Row | Compound | IC50 [µM]
63 | CC1=NN(c2cccc(C(=O)O)c2)C(=O)C1=Cc1ccc(-c2cnn(C)c2)o1 [Compound 495] | 10 to 20
